# Measured values from patent US3972872A, “6-[α-(ω-Guanidinoalkanoylamido)acylamido]penicillanic acids” (Pfizer Inc., priority 1975, dated 1976).
# Where a name gives a salt, the structure may show the parent alone. Read-outs that look alike come from different tables or passages of the source.
# Tests used:
# Proteus mirabilis C015 = assay: In vitro MIC, Proteus mirabilis C015; format: cell-based; conditions: unit assumed
# Description: (§1) The in vitro spectra of a number of 6-[α-(ω-guanidinoalkanoylamido)acylamido]penicillanic acids of this invention against certain gram-negative bacteria are presented in Table I below. […] Th compounds of Table I have the formula
# Pseudo. aeruginosa 490 = assay: In vitro MIC, Pseudo. aeruginosa 490; format: cell-based, Pseudomonas aeruginosa; conditions: unit assumed
# Description: as §1
# E. coli 266 = assay: In vitro MIC, E. coli 266, two-fold serial dilution; format: cell-based, Escherichia coli; conditions: unit assumed
# Description: as §1
# Pseudo. aeruginosa 173 = assay: In vitro MIC, Pseudo. aeruginosa 173; format: cell-based, Pseudomonas aeruginosa; conditions: unit assumed
# Description: as §1
# Escherichia coli 266 = assay: In vivo protection of mice versus Escherichia coli 266; conditions: Escherichia coli, 266, sc, 96 h, read-out: % Protection
# Description: (§2) Additionally, the compounds of this invention are active versus gram-positive and gram-negative bacteria in vivo via the parenteral route of administration in animals, including man. Their in vivo activity in animals, including man, by the oral route of administration is more limited as regards susceptible organisms. Nevertheless, oral in vivo activity against Escherichia coli and Staphylococcus aureus is a common property of many compounds of this invention. Table II below presents the comparative in vivo spectra of several compounds within the scope of this invention against D-α-aminobenzylpenicillin (Ampicillin).
# (§3) The acute systemic infections in mice were produced by the intraperitoneal inoculation of standardized cultures suspended in 5% hog gastric mucin. Treatment with the drugs was initiated 0.5 hours after inoculation of the infecting organism. A second dose was administered 4 hours later. The PD50 values were calculated after a hold period of 4 days.
# Pseudo. aeruginosa 104 = assay: In vitro MIC, Pseudo. aeruginosa 104; format: cell-based, Pseudomonas aeruginosa; conditions: unit assumed
# Description: as §1
# Proteus vulgaris A059 = assay: In vitro MIC, Proteus vulgaris A059; format: cell-based; conditions: unit assumed
# Description: as §1
# Serratia marcescens A001 = assay: In vitro MIC, Serratia marcescens A001; format: cell-based; conditions: unit assumed
# Description: as §1
# Proteus mirabilis C020 = assay: In vitro MIC, Proteus mirabilis C020; format: cell-based; conditions: unit assumed
# Description: (§4) The in vitro activity of the herein-described compounds renders them useful for topical application in the form of ointments, creams and the like, or for sterilization purposes, e.g., sick room utensils.
# as §1
# Proteus rettgeri B006 = assay: In vitro MIC, Proteus rettgeri B006; format: cell-based; conditions: unit assumed
# Description: as §4, §1
# S. aureus = assay: PD50 versus acute systemic S. aureus infection in mice; format: in vivo; conditions: Staphylococcus aureus, 96 h, S. aureus, mice
# Description: as §2, §3
# E. coli = assay: PD50 versus acute systemic E. coli infection in mice; format: in vivo; conditions: Escherichia coli, 96 h, E. coli, mice
# Description: as §2, §3
# P. aeruginosa = assay: PD50 versus acute systemic P. aeruginosa infection in mice; format: in vivo; conditions: mice; for ED50: Pseudomonas aeruginosa, 96 h, P. aeruginosa, read-out: PD50
# Description: as §2, §3
# [1] = 50 mg./kg., mice, subcutaneous route
Compound,MIC (Proteus mirabilis C015) [µg/mL],MIC (Pseudo. aeruginosa 490) [µg/mL],MIC (E. coli 266) [µg/mL],MIC (Proteus mirabilis C020) [µg/mL],MIC (Proteus rettgeri B006) [µg/mL],MIC (Pseudo. aeruginosa 173) [µg/mL],responders at 50 mg/kg (Escherichia coli 266; [1]) [%],MIC (Pseudo. aeruginosa 104) [µg/mL],MIC (Proteus vulgaris A059) [µg/mL],MIC (Serratia marcescens A001) [µg/mL],responders at 50 mg/kg (Escherichia coli 266) [%],ED50 (S. aureus; oral) [mg/kg],"ED50 (S. aureus; sc, subcutaneous) [mg/kg]",ED50 (E. coli; oral) [mg/kg],"ED50 (E. coli; sc, subcutaneous) [mg/kg]",ED50 (P. aeruginosa; oral) [mg/kg],"ED50 (P. aeruginosa; sc, subcutaneous) [mg/kg]",activity against Pseudomonas aeruginosa (in words) (P. aeruginosa; in vivo)
"CC1(C)S[C@@H]2[C@H](NC(=O)[C@H](NC(=O)CN3CCNC3=N)c3ccccc3)C(=O)N2[C@H]1C(=O)O [CH2 --N--C(NH)--NHCH2 CH2, R=H]",3.12,3.12,6.25,–,–,12.5,–,12.5,6.25,12.5,100,–,–,–,–,–,–,–
"CNC(=N)NCC(=O)N[C@@H](C(=O)N[C@@H]1C(=O)N2[C@@H]1SC(C)(C)[C@@H]2C(=O)O)c1ccccc1 [CH2 --NH--C(NH)NHCH3, R=H]",1.56,0.78,1.56,–,–,3.12,–,1.56,3.12,3.12,100,–,–,–,–,–,–,–
"CN(CC(=O)N[C@@H](C(=O)N[C@@H]1C(=O)N2[C@@H]1SC(C)(C)[C@@H]2C(=O)OCOC(=O)C(C)(C)C)c1ccccc1)C(=N)N [CH2 N(CH3)--C(NH)NH2, R=POM, 6-{D-2-Phenyl-2-[(1-Methylguanidino)Acetamido]Acetamido}-Penicillanic Acid, Pivaloyloxymethyl Ester, Hydrochloride]",12.5,3.12,12.5,–,–,–,–,–,–,–,70,–,–,–,–,–,–,–
"CC1(C)S[C@@H]2[C@H](NC(=O)[C@H](N)c3ccccc3)C(=O)N2[C@H]1C(=O)O [D-α-aminobenzylpenicillin, reference compound]",1.5,0.78,3.1,–,–,200,100,200,6,200,–,2.5 ± 0.7,0.67 ± 0.4,25 ± 13,27 ± 9,> 200,> 200,inactive
"CC1(C)S[C@@H]2[C@H](NC(=O)[C@H](NC(=O)Cc3ccc(NC(=N)N)cc3)c3ccccc3)C(=O)N2[C@H]1C(=O)O [NH--C(NH)NH2 [4th of 4], R=H]",12.5,1.56,6.25,–,–,3.12,20,6.25,12.5,25,–,–,–,–,–,–,–,–

# Second part, led by results:
MIC (Proteus mirabilis C015) [µg/mL],MIC (Pseudo. aeruginosa 490) [µg/mL],MIC (E. coli 266) [µg/mL],MIC (Proteus mirabilis C020) [µg/mL],MIC (Proteus rettgeri B006) [µg/mL],Compound,MIC (Pseudo. aeruginosa 173) [µg/mL],responders at 50 mg/kg (Escherichia coli 266; [1]) [%],MIC (Pseudo. aeruginosa 104) [µg/mL],MIC (Proteus vulgaris A059) [µg/mL],MIC (Serratia marcescens A001) [µg/mL],responders at 50 mg/kg (Escherichia coli 266) [%],ED50 (S. aureus; oral) [mg/kg],"ED50 (S. aureus; sc, subcutaneous) [mg/kg]",ED50 (E. coli; oral) [mg/kg],"ED50 (E. coli; sc, subcutaneous) [mg/kg]",ED50 (P. aeruginosa; oral) [mg/kg],"ED50 (P. aeruginosa; sc, subcutaneous) [mg/kg]",activity against Pseudomonas aeruginosa (in words) (P. aeruginosa; in vivo)
3.12,1.56,6.25,–,–,"CC1(C)S[C@@H]2[C@H](NC(=O)[C@H](NC(=O)C3CCCN(C(=N)N)C3)c3ccccc3)C(=O)N2[C@H]1C(=O)O (stereo partly drawn) [C(NH)NH2, R=H]",6.25,80,12.5,6.25,6.25,–,–,–,–,–,–,–,–
0.78,3.12,3.12,12.5,50,"CC1(C)S[C@@H]2[C@H](NC(=O)[C@H](NC(=O)CCNC(=N)N)c3ccccc3)C(=O)N2[C@H]1C(=O)O [CH2 CH2 NH--C(NH)NH2, R=H, 6-[D-2-Phenyl-2-(Guanidinopropionamido)Acetamido]Penicillanic Acid]",3.12,70,6.25,3.12,6.25,–,–,–,–,–,–,–,–
0.39,6.25,6.25,–,–,"CC(C)(C)C(=O)OCOC(=O)[C@@H]1N2C(=O)[C@@H](NC(=O)[C@H](NC(=O)CCNC(=N)N)c3ccccc3)[C@H]2SC1(C)C [CH2 CH2 NH--C(NH)NH2, R=POM, Hydrochloride]",–,100,–,–,–,–,–,–,–,–,–,–,–
50,0.78,25,–,–,"CC(C)(C)C(=O)OCOC(=O)[C@@H]1N2C(=O)[C@@H](NC(=O)[C@H](NC(=O)CNC(=N)N)c3ccccc3)[C@H]2SC1(C)C [CH2 NH--C(NH)NH2, R=POM, 6-[D-2-Phenyl-2-(Guanidinoacetamido)Acetamido]Penicillanic Acid, Pivaloyloxymethyl Ester, Hydrochloride]",–,90,–,–,–,–,–,–,–,–,–,–,–
